US11459315B2, “Modulators of methyl modifying enzymes, compositions and uses thereof” (Constellation Pharmaceuticals, Inc., priority 2017, dated 2022)
Where two headings read alike, the source gives them in different places.

How the values were obtained:
[1] = system: H3K27me3 mark in HeLa cells (EZH2); assay: H3K27me3 Alpha Hela Assay (AlphaLISA); format: cell-based; details: HeLa cells, 72 hrs, read-out: EZH2 Cell H3K27me3 Alpha HeLa (EC50 K27me3)
How it was run: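 HeLa cells (1,000/well) treated with ten 3-fold compound doses for 72 h at 37 °C; lysates extracted and H3K27me3 detected by AlphaLISA with anti-K27me3 acceptor beads, biotinylated anti-H3 (3 nM) and streptavidin donor beads. EC50 from DMSO-normalized dose-response curves; duplicate plate assessed viability.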

PRC2 containing wt EZH2 = PRC2 containing wt EZH2 (Homo sapiens (Human), UniProt Q15910); assay: EZH2 biochemical assay (IC50), 3H-SAM incorporation into biotinylated H3 peptide
Sequence of PRC2 containing wt EZH2 (Q15910 whole entry): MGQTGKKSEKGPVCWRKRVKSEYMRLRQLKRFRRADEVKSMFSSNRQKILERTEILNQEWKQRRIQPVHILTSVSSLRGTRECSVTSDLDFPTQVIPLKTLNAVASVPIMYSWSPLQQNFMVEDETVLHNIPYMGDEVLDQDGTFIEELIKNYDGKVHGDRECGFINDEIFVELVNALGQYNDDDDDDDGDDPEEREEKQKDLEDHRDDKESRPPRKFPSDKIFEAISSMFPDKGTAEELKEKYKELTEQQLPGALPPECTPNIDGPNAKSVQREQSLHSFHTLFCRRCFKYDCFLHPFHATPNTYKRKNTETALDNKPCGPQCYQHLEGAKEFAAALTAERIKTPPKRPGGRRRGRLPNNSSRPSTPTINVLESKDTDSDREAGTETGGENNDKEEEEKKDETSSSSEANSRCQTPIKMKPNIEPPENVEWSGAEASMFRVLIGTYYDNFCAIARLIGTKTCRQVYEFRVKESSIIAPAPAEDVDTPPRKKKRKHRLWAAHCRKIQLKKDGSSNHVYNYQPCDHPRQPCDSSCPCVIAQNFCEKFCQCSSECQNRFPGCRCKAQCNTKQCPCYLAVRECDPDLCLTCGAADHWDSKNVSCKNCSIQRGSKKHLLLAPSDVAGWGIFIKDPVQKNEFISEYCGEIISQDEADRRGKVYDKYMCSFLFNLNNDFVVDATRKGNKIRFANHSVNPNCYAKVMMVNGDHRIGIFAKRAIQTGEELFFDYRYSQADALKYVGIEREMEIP
Sequence of PRC2 containing wt EZH2 (O75530 whole entry partner): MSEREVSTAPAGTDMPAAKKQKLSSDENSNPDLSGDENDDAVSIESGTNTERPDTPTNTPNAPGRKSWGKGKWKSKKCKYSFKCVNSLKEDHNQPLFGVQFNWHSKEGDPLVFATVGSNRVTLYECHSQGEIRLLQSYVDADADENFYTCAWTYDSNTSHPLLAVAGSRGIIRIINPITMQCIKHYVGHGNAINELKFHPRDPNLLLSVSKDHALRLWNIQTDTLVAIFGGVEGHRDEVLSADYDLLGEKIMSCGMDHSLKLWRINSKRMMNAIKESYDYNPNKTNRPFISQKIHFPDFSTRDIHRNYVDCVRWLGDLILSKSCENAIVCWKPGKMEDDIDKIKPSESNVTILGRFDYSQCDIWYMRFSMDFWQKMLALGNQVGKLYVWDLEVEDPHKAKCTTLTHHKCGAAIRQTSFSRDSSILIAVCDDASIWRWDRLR
Sequence of PRC2 containing wt EZH2 (Q15022 whole entry partner): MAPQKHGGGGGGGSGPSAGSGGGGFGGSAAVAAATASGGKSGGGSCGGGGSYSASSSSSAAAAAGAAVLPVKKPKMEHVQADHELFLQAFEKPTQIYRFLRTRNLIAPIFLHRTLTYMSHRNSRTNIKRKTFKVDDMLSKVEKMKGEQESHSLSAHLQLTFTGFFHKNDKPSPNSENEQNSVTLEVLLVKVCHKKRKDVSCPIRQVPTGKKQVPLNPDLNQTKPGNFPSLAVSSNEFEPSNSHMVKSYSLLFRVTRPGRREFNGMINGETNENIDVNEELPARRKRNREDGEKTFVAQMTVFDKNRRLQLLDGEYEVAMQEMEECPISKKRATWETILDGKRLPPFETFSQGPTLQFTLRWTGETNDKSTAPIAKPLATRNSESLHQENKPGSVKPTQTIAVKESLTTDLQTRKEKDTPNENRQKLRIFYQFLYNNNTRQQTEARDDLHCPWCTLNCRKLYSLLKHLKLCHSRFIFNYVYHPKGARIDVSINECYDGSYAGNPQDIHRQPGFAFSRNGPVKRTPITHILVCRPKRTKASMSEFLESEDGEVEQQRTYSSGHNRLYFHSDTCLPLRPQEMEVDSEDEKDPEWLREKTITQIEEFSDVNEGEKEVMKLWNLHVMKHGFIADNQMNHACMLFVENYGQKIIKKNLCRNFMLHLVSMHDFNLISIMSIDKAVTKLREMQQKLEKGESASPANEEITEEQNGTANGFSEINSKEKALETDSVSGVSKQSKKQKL
Sequence of PRC2 containing wt EZH2 (Q09028 whole entry partner): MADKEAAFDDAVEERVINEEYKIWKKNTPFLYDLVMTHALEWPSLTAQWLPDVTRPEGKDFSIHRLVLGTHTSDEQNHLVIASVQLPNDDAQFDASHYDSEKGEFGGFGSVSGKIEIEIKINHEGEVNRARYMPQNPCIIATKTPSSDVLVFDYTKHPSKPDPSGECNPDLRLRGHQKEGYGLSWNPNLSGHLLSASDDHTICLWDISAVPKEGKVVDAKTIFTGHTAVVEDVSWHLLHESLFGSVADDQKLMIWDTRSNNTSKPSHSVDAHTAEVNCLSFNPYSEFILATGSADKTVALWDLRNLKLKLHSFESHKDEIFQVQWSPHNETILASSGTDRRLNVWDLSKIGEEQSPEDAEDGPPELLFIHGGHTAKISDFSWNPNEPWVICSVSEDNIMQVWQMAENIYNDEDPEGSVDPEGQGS
Sequence of PRC2 containing wt EZH2 (Q6ZN18 whole entry partner): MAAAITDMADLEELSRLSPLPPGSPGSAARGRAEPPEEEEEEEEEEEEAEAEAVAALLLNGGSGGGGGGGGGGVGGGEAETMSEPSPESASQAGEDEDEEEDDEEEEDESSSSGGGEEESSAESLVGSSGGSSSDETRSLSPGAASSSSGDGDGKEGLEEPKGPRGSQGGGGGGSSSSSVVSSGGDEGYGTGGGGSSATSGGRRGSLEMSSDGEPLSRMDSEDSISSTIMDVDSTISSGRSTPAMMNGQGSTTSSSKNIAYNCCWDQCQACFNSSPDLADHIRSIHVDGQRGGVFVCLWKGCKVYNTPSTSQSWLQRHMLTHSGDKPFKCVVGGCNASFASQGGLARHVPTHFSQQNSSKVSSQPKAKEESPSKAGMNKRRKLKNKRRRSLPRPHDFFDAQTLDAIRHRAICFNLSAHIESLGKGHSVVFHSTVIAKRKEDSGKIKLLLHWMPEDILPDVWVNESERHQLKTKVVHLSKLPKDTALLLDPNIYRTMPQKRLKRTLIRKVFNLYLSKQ
How it was run: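 Activity was measured as ³H-methyl transfer to a biotinylated H3K27me1 peptide over 18-22 h at room temperature, with capture on streptavidin flash plates. The 30 pM wt-EZH2 PRC2 complex was first pre-incubated 3-5 h with compound, 450 nM SAM/450 nM ³H-SAM and 2 µM H3K27me3 activator (pH 8.5, 0.8% DMSO). Four-parameter fits gave IC50.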

[2] = 30 pM PRC2 containing wt EZH2; 3-5 h pre-incubation; read-out: EZH2 (IC50)
[3] = EZH2 (IC50), 30 pM PRC2 containing wt EZH2; 3-5 h pre-incubation
[4] = read-out: EZH2 (IC50); 30 pM PRC2 containing wt EZH2; 3-5 h pre-incubation

Row | Structure (SMILES) | EC50 ([1]; Homo sapiens, HeLa, 72 h) [nM] | IC50 (PRC2 containing wt EZH2; [2]) [nM] | IC50 (PRC2 containing wt EZH2; [3]) [nM] | EC50 [1] [nM] | IC50 (PRC2 containing wt EZH2; [4]) [nM]
1 | CSc1cc(C)[nH]c(=O)c1CNC(=O)c1c(C)n([C@H](C)C2CCC(N3CC[C@H](OC(F)F)C3)CC2)c2ncccc12 (stereo partly drawn) [Example 120, 1-((R)-1-(4-((S)-3-(difluoromethoxy)pyrrolidin-1-yl)cyclohexyl)ethyl)-2-methyl-N-((6-methyl-4-(methylthio)-2-oxo-1,2-dihydropyridin-3-yl)methyl)-1H-pyrrolo[2,3-b]pyridine-3-carboxamide] | 10 to 100 | < 0.5 | – | – | –
2 | CSc1cc(C)[nH]c(=O)c1CNC(=O)c1c(C)n([C@H](C)C2CCC(N3CC[C@@H](OC(F)F)C3)CC2)c2ncccc12 (stereo partly drawn) [Example 119, 1-((R)-1-(4-((R)-3-(difluoromethoxy)pyrrolidin-1-yl)cyclohexyl)ethyl)-2-methyl-N-((6-methyl-4-(methylthio)-2-oxo-1,2-dihydropyridin-3-yl)methyl)-1H-pyrrolo[2,3-b]pyridine-3-carboxamide] | < 10 | < 0.5 | – | – | –
3 | CSc1cc(C)[nH]c(=O)c1CNC(=O)c1c(C)n([C@H](C)C2CCN(C3COC3)CC2)c2ccccc12 [Example 133, (R)-2-methyl-N-((6-methyl-4-(methylthio)-2-oxo-1,2-dihydropyridin-3-yl)methyl)-1-(1-(1-(oxetan-3-yl)piperidin-4-yl)ethyl)-1H-indole-3-carboxamide] | < 10 | – | < 0.5 | – | –
4 | CSc1cc(C)[nH]c(=O)c1CNC(=O)c1c(C)n([C@H](C)C2CCC(N3CC(OC(C)(C)C)C3)CC2)c2ncc(Cl)cc12 (stereo partly drawn) [Example 129, 1-((R)-1-(4-(3-(tert-butoxy)azetidin-1-yl)cyclohexyl)ethyl)-5-chloro-2-methyl-N-((6-methyl-4-(methylthio)-2-oxo-1,2-dihydropyridin-3-yl)methyl)-1H-pyrrolo[2,3-b]pyridine-3-carboxamide] | < 10 | < 0.5 | – | – | –
5 | CSc1cc(C)[nH]c(=O)c1CNC(=O)c1c(C)n([C@H](C)C2CCC(NC3(CF)COC3)CC2)c2ncncc12 (single isomer, unassigned) [156 (isomer 1)] | < 10 | < 0.5 | – | – | –
6 | COC1CN(C2CCC([C@@H](C)n3c(C)c(C(=O)NCc4c(SC)cc(C)[nH]c4=O)c4cc(Cl)cnc43)CC2)C1 (single isomer, unassigned) [106 (isomer 1)] | < 10 | < 0.5 | – | – | –
7 | CC[C@H](C1CCC(N2CC(OC(F)F)C2)CC1)n1c(C)c(C(=O)NCc2c(SC)cc(C)[nH]c2=O)c2cccnc21 (stereo partly drawn) [Example 118, 1-((R)-1-(4-(3-(difluoromethoxy)azetidin-1-yl)cyclohexyl)propyl)-2-methyl-N-((6-methyl-4-(methylthio)-2-oxo-1,2-dihydropyridin-3-yl)methyl)-1H-pyrrolo[2,3-b]pyridine-3-carboxamide] | < 10 | < 0.5 | – | – | –
8 | CSc1cc(C)[nH]c(=O)c1CNC(=O)c1c(C)n([C@H](C)[C@H]2OC[C@@H](N3CCC34COC4)CO2)c2ccccc12 (single isomer, unassigned; isomer 1) [150 (isomer 1)] | – | 0.5 to 5 | – | > 100 | –
9 | CSc1cc(C)[nH]c(=O)c1CNC(=O)c1c(C)n([C@H](C)C2CCC(N3CC(OC4CC4)C3)CC2)c2c(F)cccc12 (single isomer, unassigned) [113 (isomer 1)] | < 10 | < 0.5 | – | – | –
10 | COC1CN(C2CCC([C@@H](C)n3c(C)c(C(=O)NCc4c(SC)cc(C)[nH]c4=O)c4ccccc43)CC2)C1 (single isomer, unassigned) [4 (isomer 2)] | – | – | – | 10 to 100 | < 0.5
11 | CSc1cc(C)[nH]c(=O)c1CNC(=O)c1c(C)n([C@H](C)C2CCC(N3CC34COC4)CC2)c2ncccc12 (single isomer, unassigned) [139 (isomer 2)] | – | – | 0.5 to 5 | 10 to 100 | –
12 | CSc1cc(C)[nH]c(=O)c1CNC(=O)c1c(C)n([C@H](C)C2CCC(NC(C)(C)C)CC2)c2ccccc12 (stereo partly drawn) [Example 61, (R)-1-(1-(4-(tert-butylamino)cyclohexyl)ethyl)-2-methyl-N-((6-methyl-4-(methylthio)-2-oxo-1,2-dihydropyridin-3-yl)methyl)-1H-indole-3-carboxamide] | 10 to 100 | < 0.5 | – | – | –
13 | CSc1cc(C)[nH]c(=O)c1CNC(=O)c1c(C)n([C@H](C)C2CCC(NC3(C(F)(F)F)COC3)CC2)c2ccccc12 (single isomer, unassigned) [Example 130] | < 10 | < 0.5 | – | – | –
14 | CSc1cc(C)[nH]c(=O)c1CNC(=O)c1c(C)n([C@H](C)C2OCC(NC3(C)COC3)CO2)c2ccccc12 (single isomer, unassigned) [6 (isomer 1)] | – | < 0.5 | – | < 10 | –
15 | CSc1cc(C)[nH]c(=O)c1CNC(=O)c1c(C)n([C@H](C)C2CCC(NC3(CF)COC3)CC2)c2ccccc12 (single isomer, unassigned) [154 (isomer 1)] | 10 to 100 | < 0.5 | – | – | –
16 | CSc1cc(C)[nH]c(=O)c1CNC(=O)c1c(C)n([C@H](C)C2CCC(OC3CN(C)C3)CC2)c2ncccc12 (single isomer, unassigned) [145 (isomer 2)] | – | – | < 0.5 | > 100 | –
17 | COC1CN(C2CCC([C@@H](C)n3c(C)c(C(=O)NCc4c(SC5CC5)cc(C)[nH]c4=O)c4ccccc43)CC2)C1 (stereo partly drawn) [Example 99, N-((4-(cyclopropylthio)-6-methyl-2-oxo-1,2-dihydropyridin-3-yl)methyl)-1-((R)-1-(4-(3-methoxyazetidin-1-yl)cyclohexyl)ethyl)-2-methyl-1H-indole-3-carboxamide] | 10 to 100 | < 0.5 | – | – | –
18 | CSc1cc(C)[nH]c(=O)c1CNC(=O)c1c(C)n([C@H](C)C2CCC(NC3(C)CCOC3)CC2)c2ccccc12 (single isomer, unassigned) [149 (isomer 1)] | 10 to 100 | < 0.5 | – | – | –
19 | CSc1cc(C)[nH]c(=O)c1CNC(=O)c1c(C)n([C@H](C)C2CCN(CC(F)F)CC2)c2ncccc12 [Example 59, (R)-1-(1-(1-(2,2-difluoroethyl)piperidin-4-yl)ethyl)-2-methyl-N-((6-methyl-4-(methylthio)-2-oxo-1,2-dihydropyridin-3-yl)methyl)-1H-pyrrolo[2,3-b]pyridine-3-carboxamide] | < 10 | – | < 0.5 | – | –
20 | CSc1cc(C)[nH]c(=O)c1CNC(=O)c1c(C)n([C@H](C)C2CCC(N3CCC(F)(F)C3)CC2)c2ccccc12 (stereo partly drawn) [Example 95, 1-((R)-1-(4-(3,3-difluoropyrrolidin-1-yl)cyclohexyl)ethyl)-2-methyl-N-((6-methyl-4-(methylthio)-2-oxo-1,2-dihydropyridin-3-yl)methyl)-1H-indole-3-carboxamide] | < 10 | < 0.5 | – | – | –
21 | CCSc1cc(C)[nH]c(=O)c1CNC(=O)c1c(C)n([C@H](C)C2CCN(CC(F)(F)F)CC2)c2ccccc12 [Example 86, (R)-N-((4-(ethylthio)-6-methyl-2-oxo-1,2-dihydropyridin-3-yl)methyl)-2-methyl-1-(1-(1-(2,2,2-trifluoroethyl)piperidin-4-yl)ethyl)-1H-indole-3-carboxamide] | 10 to 100 | – | 0.5 to 5 | – | –
22 | COC1CN(C2CCC([C@@H](C)n3c(C)c(C(=O)NCc4c(SC)cc(C)[nH]c4=O)c4cc(Cl)cnc43)CC2)C1 (single isomer, unassigned) [106 (isomer 2)] | – | < 0.5 | – | 10 to 100 | –
23 | CSc1cc(C)[nH]c(=O)c1CNC(=O)c1c(C)n([C@H](C)C2CCC(N3CC(C#N)C3)CC2)c2ccccc12 (single isomer, unassigned) [138 (isomer 2)] | – | – | < 0.5 | 10 to 100 | –
24 | CCOC1CN(C2CCC([C@@H](C)n3c(C)c(C(=O)NCc4c(SC)cc(C)[nH]c4=O)c4cccnc43)CC2)C1 (single isomer, unassigned) [91 (isomer 2)] | – | < 0.5 | – | 10 to 100 | –
25 | CSc1cc(C)[nH]c(=O)c1CNC(=O)c1c(C)n([C@H](C)C2CCC(OC(C)=O)CC2)c2ccccc12 (single isomer, unassigned) [134 (isomer 1)] | < 10 | < 0.5 | – | – | –
26 | CSc1cc(C)[nH]c(=O)c1CNC(=O)c1c(C)n([C@H](C)C2CCC(NC3(CO)COC3)CC2)c2cc(F)ccc12 (single isomer, unassigned) [159 (isomer 2)] | – | < 0.5 | – | 10 to 100 | –
27 | CSc1cc(C)[nH]c(=O)c1CNC(=O)c1c(C)n([C@H](C)C2CCC(NC3(C(F)(F)F)COC3)CC2)c2ncncc12 (single isomer, unassigned) [164 (isomer 1)] | < 10 | < 0.5 | – | – | –
28 | CSc1cc(C)[nH]c(=O)c1CNC(=O)c1c(C)n([C@H](C)C2CCC(N3CC[C@@H](F)C3)CC2)c2ccccc12 (single isomer, unassigned) [79 (isomer 2)] | – | – | – | 10 to 100 | < 0.5
29 | CSc1cc(C)[nH]c(=O)c1CNC(=O)c1c(C)n([C@H](C)C2CCC(N3CC(OC4CC4)C3)CC2)c2ncc(F)cc12 (single isomer, unassigned) [28 (isomer 1)] | < 10 | < 0.5 | – | – | –
30 | CSc1cc(C)[nH]c(=O)c1CNC(=O)c1c(C)n([C@H](C)C2CCC(OC3COC3)CC2)c2ccccc12 (single isomer, unassigned) [137 (isomer 2)] | – | – | – | < 10 | < 0.5
